Measurements from patent US20220056019A1, “FARNESOID X RECEPTOR AGONISTS AND USES THEREOF” (Metacrine, Inc., priority 2018, published 2022).

Target: T1, hFXR (Homo sapiens, UniProt Q96RI1)
T1 construct: expressed in transfected cells; host or cells: CV-1 cells
T1 sequence (Q96RI1 1-486): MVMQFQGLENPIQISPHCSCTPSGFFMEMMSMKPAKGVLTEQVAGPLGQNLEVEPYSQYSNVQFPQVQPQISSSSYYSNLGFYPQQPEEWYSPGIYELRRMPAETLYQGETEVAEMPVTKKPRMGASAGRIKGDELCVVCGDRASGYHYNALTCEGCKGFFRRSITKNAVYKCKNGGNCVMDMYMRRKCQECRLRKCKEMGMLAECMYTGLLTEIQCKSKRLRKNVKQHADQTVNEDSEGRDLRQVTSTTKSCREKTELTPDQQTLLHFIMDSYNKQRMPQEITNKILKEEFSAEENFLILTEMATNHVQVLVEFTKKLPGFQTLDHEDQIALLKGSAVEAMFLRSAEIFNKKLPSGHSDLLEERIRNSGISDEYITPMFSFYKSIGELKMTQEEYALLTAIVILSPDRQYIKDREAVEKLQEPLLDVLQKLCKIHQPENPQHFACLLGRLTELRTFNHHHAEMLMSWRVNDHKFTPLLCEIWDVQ
T1 sequence (P19793 1-462 partner): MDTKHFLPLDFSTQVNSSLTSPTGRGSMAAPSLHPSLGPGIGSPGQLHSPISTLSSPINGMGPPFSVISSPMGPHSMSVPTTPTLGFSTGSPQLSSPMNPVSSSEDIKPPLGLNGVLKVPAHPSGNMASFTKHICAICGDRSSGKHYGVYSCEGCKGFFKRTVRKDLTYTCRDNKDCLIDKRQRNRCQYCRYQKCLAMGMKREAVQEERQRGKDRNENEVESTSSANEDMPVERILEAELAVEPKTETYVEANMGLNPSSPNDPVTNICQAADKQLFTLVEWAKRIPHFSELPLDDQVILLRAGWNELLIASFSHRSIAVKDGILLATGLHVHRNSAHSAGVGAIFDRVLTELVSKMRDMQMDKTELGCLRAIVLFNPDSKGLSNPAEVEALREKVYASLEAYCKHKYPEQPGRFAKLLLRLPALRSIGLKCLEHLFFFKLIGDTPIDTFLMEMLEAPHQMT
Test: In Vitro FXR Assay (TK): TK-ECRE-luc reporter in transfected CV-1 cells
Type: cell-based
Conditions: 18 hrs incubation, luminescence
Procedure: Example B-1: In Vitro FXR Assay (TK)
CV-1 cells were seeded at a density of 2,000,000 cells in a T175 flask with DMEM+10% charcoal double-stripped FBS and incubated at 37° C. in 5% CO2 for 18 h (O/N).
After 18 h of incubation, the medium in the T175 flask was changed with fresh DMEM+10% charcoal super-stripped serum. In a polypropylene tube, 2500 μL OptiMEM (Life Technologies, Cat #31985-062) was combined with expression plasmids for hFXR, hRXR, TK-ECRE-luc and pCMX-YFP. The tube was then briefly vortexed and incubated at room temperature for 5 minutes. Transfection reagent (X-tremeGENE HP from Roche, Cat #06 366 236 001) was added to the OptiMEM/plasmid mixture vortexed and incubated at room temperature for 20 minutes. Following incubation, the transfection reagent/DNA mixture complex was added to cells in the T175 flask and the cells were incubated at 37° C. in 5% CO2 for 18 h (O/N).
Compounds were serially diluted in DMSO and added to transfected CV-1 cells. The cells were then incubated for 18 hrs. The next day cells were lysed and examined for luminescence.

SMILES	EC50 [µM]
COc1ccc(C23CCC(CN(c4cc(-c5coc(C(C)C)n5)ccn4)C(=O)[C@H]4CC[C@H](OC(=O)NCCO)CC4)(CC2)CC3)cc1C [Compound 22, 4-((4-(2-Isopropyloxazol-4-yl)pyridin-2-yl)((4-(4-methoxy-3-methylphenyl)bicyclo[2.2.2]octan-1-yl)methyl)carbamoyl)cyclohexyl (2-hydroxyethyl)trans-carbamate]	≤ 0.05
COc1ccc(C23CCC(CN(c4cc(-n5cnc(C(C)C)n5)ccn4)C(=O)[C@H]4CC[C@H](OC(=O)N5CC(O)C5)CC4)(CC2)CC3)cc1C [Compound 4.18, 4-((4-(3-Isopropyl-1H-1,2,4-triazol-1-yl)pyridin-2-yl)((4-(4-methoxy-3-methylphenyl)bicyclo [2.2.2]octan-1-yl)methyl)carbamoyl)cyclohexyl 3-hydroxyazetidine-trans-1-carboxylate]	≤ 0.05
COc1ccc(C23CCC(CN(c4cccc(-c5cnn(C(C)C)c5)n4)C(=O)[C@H]4CC[C@H](OC(=O)N5CC(O)C5)CC4)(CC2)CC3)cc1C [Compound 23.25, 4-((6-(1-Isopropyl-1H-pyrazol-4-yl)pyridin-2-yl)((4-(4-methoxy-3-methylphenyl)bicyclo[2.2.2]octan-1-yl)methyl)carba-moyl)cyclohexyl trans-3-hydroxy-azetidine-1-carboxylate]	≤ 0.05
COc1ccc([C@H]2CC[C@H](CN(c3cc(-c4cnn(C(C)C)c4)ccn3)C(=O)[C@H]3CC[C@H](OC(=O)N4CC(CO)C4)CC3)CC2)cc1C [Compound 2.03, trans-4-((4-(1-Isopropyl-1H-pyrazol-4-yl)pyridin-2-yl)(((trans)-4-(4-methoxy-3-methylphenyl)cyclohexyl)methyl)carbamoyl)cyclohexyl 3-(hydroxymethyl) azetidine-1-carboxylate]	≤ 0.05
COc1ccc([C@H]2CC[C@H](CN(c3cc(-c4cnc(C5CC5)o4)ccn3)C(=O)[C@H]3CC[C@H](OC(=O)N4CC(O)C4)CC3)CC2)cc1C [Compound 2.01, trans-4-((4-(2-Cyclopropyloxazol-5-yl)pyridin-2-yl)((trans-4-(4-methoxy-3-methylphenyl)cyclohexyl)methyl)carbamoyl)cyclohexyl 3-hydroxyazetidine-1-carboxylate]	≤ 0.05
COc1ccc(C23CCC(CN(c4cc(-c5cnc(C6CC6)o5)ccn4)C(=O)[C@H]4CC[C@H](OC(=O)N5CC(O)C5)CC4)(CC2)CC3)cc1C [Compound 4.24, 4-((4-(2-Cyclopropyloxazol-5-yl)pyridin-2-yl)((4-(4-methoxy-3-methylphenyl)bicyclo [2.2.2]octan-1-yl)methyl)carbamoyl) cyclohexyl 3-hydroxyazetidine-trans-1-carboxylate]	≤ 0.05
COc1ccc(C23CCC(CN(c4cc(-c5cnn(C6CCC6)c5)ccn4)C(=O)[C@H]4CC[C@H](OC(=O)N5CC(CO)C5)CC4)(CC2)CC3)cc1C [Compound 23.10, 4-((4-(1-Cyclobutyl-1H-pyrazol-4-yl)pyridin-2-yl)((4-(4-methoxy-3-methylphenyl)bicyclo[2.2.2]octan-1-yl)methyl)carbamoyl)(trans-cyclohexyl) 3-(hydroxymethyl)azetidine-1-carboxylate]	≤ 0.05
COc1ccc([C@H]2CC[C@H](CN(c3cccc(-c4cnn(C(C)C)c4)c3)C(=O)[C@H]3CC[C@H](NC(=O)OC4CN(C)C4)CC3)CC2)cc1C [Compound 6.07, 1-Methylazetidin-3-yl (trans-4-((3-(1-isopropyl-1H-pyrazol-4-yl)phenyl)((trans-4-(4-methoxy-3-methylphenyl)cyclohexyl)meth-yl)carbamoyl)cyclohexyl)carbamate]	0.05 to 1
COc1ccc(C23CCC(CN(c4cncc(-c5cnn(C(C)C)c5)c4)C(=O)[C@H]4CC[C@H](OC(=O)N5CC(O)C5)CC4)(CC2)CC3)cc1C [Compound 25, 4-((5-(1-Isopropyl-1H-pyrazol-4-yl)pyridin-3-yl)((4-(4-methoxy-3-methylphenyl)bicyclo[2.2.2]octan-1-yl)methyl)carbamoyl)cyclohexyl trans-3-hydroxyazetidine-1-carboxylate]	≤ 0.05
COc1ccc(C23CCC(CN(c4cc(-c5cnc(C(C)C)s5)ccn4)C(=O)[C@H]4CC[C@H](OC(=O)NCCCO)CC4)(CC2)CC3)cc1C [Compound 4.33, 4-((4-(2-Isopropylthiazol-5-yl)pyridin-2-yl)((4-(4-methoxy-3-methylphenyl)bicyclo[2.2.2]octan-1-yl)methyl)carbamoyl)(trans-cyclohexyl) (3-hydroxypropyl)carbamate]	≤ 0.05
COc1ccc(C23CCC(CN(c4cccc(-c5cnn(C(C)C)c5)c4)C(=O)[C@H]4CC[C@H](OC(=O)N5CC(O)C5)CC4)(CC2)CC3)cc1C [Compound 25.02, 4-((3-(1-Isopropyl-1H-pyrazol-4-yl)phenyl)((4-(4-methoxy-3-methylphenyl)bicyclo[2.2.2]octan-1-yl)methyl)carbamoyl)cyclohexyl trans-3-hydroxyazetidine-1-carboxylate]	≤ 0.05
COc1ccc(C23CCC(CN(c4cc(-c5cnc(C(C)C)s5)ccn4)C(=O)[C@H]4CC[C@H](OC(=O)NC5COC5)CC4)(CC2)CC3)cc1C [Compound 4.35, 4-((4-(2-Isopropylthiazol-5-yl)pyridin-2-yl)((4-(4-methoxy-3-methylphenyl)bicyclo[2.2.2]octan-1-yl)methyl)carbamoyl)(trans-cyclohexyl) oxetan-3-ylcarbamate]	≤ 0.05
COc1ccc([C@H]2CC[C@H](CN(c3cccc(-c4cnn(C(C)C)c4)c3)C(=O)[C@H]3CC[C@H](NC(=O)C4CCOCC4)CC3)CC2)cc1C [Compound 10.02, N-(trans-4-((3-(1-Isopropyl-1H-pyrazol-4-yl)phenyl)((trans-4-(4-methoxy-3-methylphenyl)cyclohexyl)methyl)carbamoyl)cyclohexyl)tetrahydro-2H-pyran-4-carboxamide]	≤ 0.05
COc1ccc([C@H]2CC[C@H](CN(c3cc(-c4cnn(C(C)C)c4)ccn3)C(=O)[C@H]3CC[C@H](OC(=O)N4CC(S(C)(=O)=O)C4)CC3)CC2)cc1C [Compound 2.12, trans-4-((4-(1-Isopropyl-1H-pyrazol-4-yl)pyridin-2-yl)(((trans)-4-(4-methoxy-3-methylphenyl)cyclohexyl)methyl)carbamoyl) cyclohexyl 3-(methylsulfonyl)azetidine-1-carboxylate]	≤ 0.05
COc1ccc(C23CCC(CN(c4cc(-n5cnc(C(C)C)c5)ccn4)C(=O)[C@H]4CC[C@H](OC(=O)N5CC(O)C5)CC4)(CC2)CC3)cc1C [Compound 23.13, 4-((4-(4-Isopropyl-1H-imidazol-1-yl)pyridin-2-yl)((4-(4-methoxy-3-methylphenyl)bicyclo[2.2.2]octan-1-yl)methyl)carbamoyl)cyclohexyl trans-3-hydroxyazetidine-1-carboxylate]	≤ 0.05
COc1c(F)cc(C23CCC(CN(c4cc(-c5cnn(C(C)C)c5)ccn4)C(=O)[C@H]4CC[C@H](OC(=O)N5CC(O)C5)CC4)(CC2)CC3)cc1F [Compound 26.06, 4-(((4-(3,5-Difluoro-4-methoxyphenyl)bicyclo[2.2.2]octan-1-yl)methyl)(4-(1-isopropyl-1H-pyrazol-4-yl)pyridin-2-yl)carbamoyl)cyclohexyl trans-3-hydroxyazetidine-1-carboxylate]	≤ 0.05
